Data reported in patent publication US4067990A, “Process for the preparation of insecticidal compositions based on carbamic esters” (Airwick Industries, Inc., priority 1971, dated 1978).

System: common cockroaches
Assay: Test I: insecticidal efficacy of sprayed glass plates after 24 hours, one minute contact, common cockroaches
Type: in vivo, Blatta orientalis
Conditions: compared with Dioxacarb
Experimental: After a standing time of 24 hours, tests to determine insecticidal efficacy were carried out on common cockroaches, these being placed on the treated face of the glass plate for one minute, and then transferred for observation to ventilated glass jars. […] The proportions recorded are shown below.

CNC(=O)Oc1ccccc1OC(C)C [Arprocarb, 2-isopropoxyphenyl N-methyl-carbamate]
insecticidal behaviour in words: behaves exactly as Dioxacarb
